Patent publication US20240268385A1, “PEST CONTROL COMPOSITION” (DAIKIN INDUSTRIES, LTD., priority 2021, published 2024)
Like-named read-outs stand apart in the source and are kept apart here.

What was measured:
[1] = system: phytophthora disease pathogens; details: in vivo
[2] = system: Frankliniella occidentalis (First-instar Larva); assay: whole plant or invertebrate; details: in Brassica oleracea, 120 h
Experimental: (§1) 9 parts by mass of a subagent of a formulation (xylene:DMF:Solpol 3005X (Toho Chemical Industry Co., Ltd.)=4:4:1) was mixed with 1 part by mass of dexmedetomidine (Wako) to prepare a 10% emulsion. A diluted solution of the 10% emulsion with a predetermined concentration was prepared by using a spreading agent, Grameen S (Toyo Green Co., Ltd.), diluted 10000-fold with water. Sample crops were individually sprayed with a sufficient amount of the diluted chemical solution by using a spray gun.
(§2) Test Method for Bemisia tabaci (Adult) and Frankliniella Occidentalis (First-Instar Larva)
(§3) After the sample crops were sprayed with the chemical solution, they were air-dried, and then the leaves were cut and stored in cups. While test insects were released, the number of insects released was counted, and the cups were covered with a lid. The mortality rate was calculated from the number of surviving insects after 2 days for Bemisia tabaci and after 5 days for Frankliniella occidentalis. Their corrected mortality rate was calculated from the following formula:
(§4) Corrected mortality rate (%)=[(survival rate of untreated group−survival rate of treated group)/survival rate of untreated group]×100

[3] = system: Bemisia tabaci (Adult Insect); assay: whole plant or invertebrate; details: in Brassica oleracea, 48 h
Experimental: as §1, §2, §3, §4

[4] = system: sheath blight fungi; details: 500 ppm spray, rice plants at 5-leaf stage, 6 days in humid room
[5] = system: brown blotch disease pathogens; details: 500 ppm spray, cucumbers at 2-leaf stage, 8 days in humid room
Experimental: as §1
(§5) Preventive value=100−(damage in treated group/damage in untreated group)×100 (N)
Test Method for Brown Blotch Disease Pathogen
Cucumbers at the 2-leaf stage were sprayed with the chemical solution and inoculated with a spray of a spore suspension of brown blotch disease pathogens, and then placed in a humid room for 8 days. The area of lesions on leaves was measured, and the preventive value was calculated according to formula (N).

[6] = system: blast disease pathogens; details: 500 ppm spray, rice seedlings at 2.5-leaf stage, 8 days in humid room
Experimental: as §1
Test Method for Blast Disease Pathogen
Seedlings at the 2.5-leaf stage were sprayed with the chemical solution, and placed in a humid room for 8 days with blast disease pathogens, followed by measuring the area of lesions. The preventive value was calculated from the ratio to the untreated group according to the following formula (N):
as §5

[7] = system: Nephotettix cincticeps (Three-instar Larva); assay: whole plant or invertebrate; details: in Oryza sativa, 144 h
Experimental: as §1
(§6) Test Method for Nilaparvata lugens (Third-Instar Larva) and Nephotettix cincticeps (Third-Instar Larvae)
(§7) After the sample crops were sprayed with the chemical solution, they were air-dried, and 10 test insects were released. To prevent the escape of the test insects, plants were covered with cups and nylon gauze. The mortality rate was calculated from the number of surviving insects after 6 days, and the corrected mortality rate was calculated from the following formula:
as §4

[8] = system: Nilaparvata lugens (Three-instar Larva); assay: whole plant or invertebrate; details: in Oryza sativa, 144 h
Experimental: as §1, §6, §7, §4

[9] = read-out: Insect Mortality Rate
[10] = read-out: Insect Mortality Rate (Corrected)

With Cc1cccc([C@H](C)c2cnc[nH]2)c1C [Chemical Agent, dexmedetomidine] the “Phytophthora Expansion Area” value [1] was 15%, the “Phytophthora Preventive Value” [1] was 84 and the mortality at 100 ppm [2, 9] was 100%. For the same molecule, the mortality at 500 ppm [2, 9] was 100%, the mortality at 100 ppm [2, 10] was 100% and the mortality at 500 ppm [2, 10] was 100%. It also gave a mortality at 100 ppm [3, 9] of 100%, a mortality at 500 ppm [3, 9] of 100% and a mortality at 100 ppm [3, 10] of 100%. The mortality at 500 ppm [3, 10] was 100%, the “Sheath Blight Disease Lesion Elongation” value [4] was 3 mm and the “Sheath Blight Disease Preventive Value” [4] was 98. For the same molecule, the “Brown Blotch Disease Expansion Area” value [5] was 2%, the “Brown Blotch Disease Preventive Value” [5] was 86 and the “Blast Disease Expansion Area Percentage” value [6] was 0%. The “Blast Disease Preventive Value” [6] was 100, the mortality at 100 ppm [7, 9] was 100% and the mortality at 500 ppm [7, 9] was 100%. It also gave a mortality at 100 ppm [7, 10] of 100%, a mortality at 500 ppm [7, 10] of 100% and a mortality at 100 ppm [8, 9] of 100%. It also gave a mortality at 500 ppm [8, 9] of 100%, a mortality at 100 ppm [8, 10] of 100% and a mortality at 500 ppm [8, 10] of 100%.
